From patent US20070004660A1, “Synergistic Modulation of Flt3 Kinase Using Alkylquinolines and Alkylquinazolines” (priority 2005, published 2007)

The molecules below were run on MV4-11 cells (assay: Inhibition of MV4-11 cell proliferation (CellTiterGlo, 72 h)). Details: Homo sapiens; 72 h growth inhibition; uncertainty ±20%.
Type: cell-based
`CC(C)c1ccc(NC(=O)N2CCC(c3ncnc4cc(Cl)ccc34)CC2)cc1` [Example 30, 4-(7-Chloro-quinazolin-4-yl)-piperidine-1-carboxylic acid (4-isopropyl-phenyl)-amide] gave an IC50 of 380 nM. In the case of `CC(C)Oc1ccc(NC(=O)N2CCC(c3ncnc4cc(OCCN5CCCCC5)ccc34)CC2)cc1` [Example 34, 4-(7-(2-Piperindin-1-yl-ethoxy)-quinazolin-4-yl)-piperidine-1-carboxylic acid (4-isopropoxy-phenyl)-amide], the IC50 is reported as 95 nM. With `O=C(Nc1ccc(N2CCCC2)cc1)N1CCC(c2ncnc3cc(N4CCOCC4)c(F)cc23)CC1` [Compound 210, 4-(6-Fluoro-7-morpholin-4-yl-quinazolin-4-yl)-piperidine-1-carboxylic acid (4-pyrrolidin-1-yl-phenyl)-amide] the IC50 was 102 nM. Molecule `COc1cc2c(C3CCN(C(=O)Nc4ccc(N5CCCC5)cc4)CC3)ncnc2cc1N1CCOCC1` [Compound 211, 4-(6-Methoxy-7-morpholin-4-yl-quinazolin-4-yl)-piperidine-1-carboxylic acid (4-pyrrolidin-1-yl-phenyl)-amide] has an IC50 of 20 nM. Molecule `COc1cc2ncnc(C3CCN(C(=O)Nc4ccc(N(C)C)cc4)CC3)c2cc1OC` [Example 26, 4-(6,7-Dimethoxy-quinazolin-4-yl)-piperidine-1-carboxylic acid (4-dimethylamino-phenyl)-amide] has an IC50 of 204 nM. For `COc1cc2c(C3CCN(C(=O)Nc4ccc(N5CCCC5)cc4)CC3)ncnc2cc1OCCN1CCCC1=O` [Compound 209, 4-{6-Methoxy-7-[2-(2-oxo-pyrrolidin-1-yl)-ethoxy]-quinazolin-4-yl}-piperidine-1-carboxylic acid (4-pyrrolidin-1-yl-phenyl)-amide], the IC50 was 26 nM. With `COc1ccc2c(C3CCN(C(=O)Nc4ccc(OC(C)C)cc4)CC3)ncnc2c1` [Example 31, 4-(7-Methoxy-quinazolin-4-yl)-piperidine-1-carboxylic acid (4-isopropoxy-phenyl)-amide] the IC50 was 85 nM. In the case of `CC(C)Oc1ccc(NC(=O)N2CCC(c3ncnc4cc(OCCCN5CCN(C)CC5)ccc34)CC2)cc1` [Example 39], the IC50 is reported as 14 nM. Work on `CCN(CC)CCOc1ccc2c(C3CCN(C(=O)Nc4ccc(OC(C)C)cc4)CC3)ncnc2c1` [Example 35, 4-[7-(2-Diethylamino-ethoxy)-quinazolin-4-yl)-piperidine-1-carboxylic acid (4-isopropoxy-phenyl)-amide] yielded an IC50 of 95 nM. `COc1cc2c(C3CCN(C(=O)Nc4ccc(N5CCOCC5)cc4)CC3)ncnc2cc1OCCCN1CCN(C)CC1` [Compound 207, 4-{6-Methoxy-7-[3-(4-methyl-piperazin-1-yl)-propoxy]-quinazolin-4-yl}-piperidine-1-carboxylic acid (4-morpholin-4-yl-phenyl)-amide] showed an IC50 of 48 nM. Molecule `CC(C)Oc1ccc(NC(=O)N2CCC(c3ncnc4cc(OCCCN5CCCCC5)ccc34)CC2)cc1` [Example 33, 4-(7-(3-Piperidin-1-yl-propoxy)-quinazolin-4-yl)-piperidine-1-carboxylic acid (4-isopropoxy-phenyl)-amide] has an IC50 of 50 nM. Work on `COc1cc2ncnc(C3CCN(C(=O)Cc4ccc(C(C)C)cc4)CC3)c2cc1OC` [Example 28, 1-[4-(6,7-Dimethoxy-quinazolin-4-yl)-piperidin-1-yl]-2-(4-isopropyl-phenyl)-ethanone] yielded an IC50 of 15 nM. In the case of `CCN(CC)CCCOc1ccc2c(C3CCN(C(=O)Nc4ccc(OC(C)C)cc4)CC3)ncnc2c1` [Example 36, 4-[7-(3-Diethylamino-propoxy)-quinazolin-4-yl)-piperidine-1-carboxylic acid (4-isopropoxy-phenyl)-amide], the IC50 is reported as 42 nM. `COc1cc2c(C3CCN(C(=O)Nc4ccc(N5CCOCC5)cc4)CC3)ncnc2cc1N1CCOCC1` [Compound 212, 4-(6-Methoxy-7-morpholin-4-yl-quinazolin-4-yl)-piperidine-1-carboxylic acid (4-morpholin-4-yl-phenyl)-amide] gave an IC50 of 367 nM. Molecule `CC(C)Oc1ccc(NC(=O)N2CCC(c3ncnc4cc(OCCN5CCOCC5)ccc34)CC2)cc1` [Example 37] has an IC50 of 165 nM. `COCCOc1ccc(NC(=O)N2CCC(c3ncnc4cc(OC)c(OC)cc34)CC2)cc1` [Example 40, 4-(6,7-Dimethoxy-quinazolin-4-yl)-piperidine-1-carboxylic acid [4-(2-methoxy-ethoxy)-phenyl]-amide] was tested, and the IC50 was 2200 nM. `COc1cc2ncnc(C3CCN(C(=O)Nc4ccc(-n5ccnc5)cc4)CC3)c2cc1OC` [Example 3, 4-(6,7-Dimethoxy-quinazolin-4-yl)-piperidine-1-carboxylic acid (4-imidazol-1-yl-phenyl)-amide] showed an IC50 of 636 nM. `COc1cc2ncnc(C3CCN(C(=O)Nc4ccc(I)cc4)CC3)c2cc1OC` [Example 2, 4-(6,7-Dimethoxy-quinazolin-4-yl)-piperidine-1-carboxylic acid (4-iodo-phenyl)-amide] was tested, and the IC50 was 752 nM. Work on `CC(C)Oc1ccc(NC(=O)N2CCC(c3ncnc4cc(OCCCN5CCOCC5)ccc34)CC2)cc1` [Example 38] yielded an IC50 of 16 nM. `COc1ccc2c(C3CCN(C(=O)Nc4ccc(C(C)C)cc4)CC3)ncnc2c1` [Example 32, 4-(7-Methoxy-quinazolin-4-yl)-piperidine-1-carboxylic acid (4-isopropyl-phenyl)-amide] gave an IC50 of 235 nM. `CC(C)Oc1ccc(NC(=O)N2CCC(c3ncnc4cc(Cl)ccc34)CC2)cc1` [Example 29, 4-(7-Chloro-quinazolin-4-yl)-piperidine-1-carboxylic acid (4-isopropoxy-phenyl)-amide] was tested, and the IC50 was 315 nM. In the case of `COc1cc2ncnc(C3CCN(C(=O)Nc4ccc(NC(C)=O)cc4)CC3)c2cc1OC` [Example 25, 4-(6,7-Dimethoxy-quinazolin-4-yl)-piperidine-1-carboxylic acid (4-acetylamino-phenyl)-amide], the IC50 is reported as > 10000 nM. `O=C1CCCN1CCOc1cc2ncnc(C3CCN(C(=O)Nc4ccc(N5CCCC5)cc4)CC3)c2cc1F` [Compound 206, 4-{6-Fluoro-7-[2-(2-oxo-pyrrolidin-1-yl)-ethoxy]-quinazolin-4-yl}-piperidine-1-carboxylic acid (4-pyrrolidin-1-yl-phenyl)-amide] showed an IC50 of 61 nM.

Each molecule was assayed on MV4-11 cells (assay: Annexin V staining (apoptosis) of MV4-11 cells). Details: Tipifarnib and FLT3 inhibitor Compound A, fixed ratio 4:1, 48 hours.
Type: cell-based, human
Protocol: After the compound incubations, treated cells were harvested and stained with Annexin V-PE and 7-AAD using the Guava Nexin apoptosis kit according to the protocol in the Biological Activity Measurements section hereafter. Annexin V staining peaks at 60% because cells late in apoptosis begin to fall apart and are considered debris. […] Statistical analysis using the above described method of Chou and Talalay was also performed to determine the synergy of the combination. FIG. 11b depictes the isobolar analysis of the Tipifarnib and FLT3 inhibitor Compound A combination in inducing annexin V staining. […] The magnitude of the synergistic induction of apoptosis of MV4-11 cells by the combination of an FTI and a FLT3 inhibitor could not be predicted by those skilled in the art. […]
Annexin V Staining. To examine the apoptosis of the leukemic MV4-11 cell line, cells were treated with Tipifarnib and/or FLT3 inhibitor Compound A, and Annexin V binding to phosphotidylserine on the outer leaflet of the plasma membrane of apoptotic cells was monitored using the GuavaNexin assay reagent and the Guava personal flow cytometry system (Guava Technologies; Hayward, Calif.). […] All annexin positive cells were considered apoptotic and percent Annexin positive cells was calculated.
For `Cn1cncc1C(N)(c1ccc(Cl)cc1)c1ccc2c(c1)c(-c1cccc(Cl)c1)cc(=O)n2C` (single isomer, unassigned; (+)) [Tipifarnib, (+)-6-[amino(4-chlorophenyl)(1-methyl-1H-imidazol-5-yl)methyl]-4-(3-chlorophenyl)-1-methyl-2(1H)-quinolinone], the “shift of EC50 for induction of annexin V staining by the combination” value was “more than eight-fold”.

These molecules were tested on MV-4-11 tumor xenografts (assay: In vivo combination study, FLT3 inhibitor Compound B and Tipifarnib, MV-4-11 xenografts). Details: 50 mg/kg po alone, Day 9.
Protocol: The effect of combination treatment of the FLT3 Inhibitor FLT3 inhibitors of Formula I′ and Tipifarnib (Zarnestra™) on the growth of MV-4-11 human AML tumor xenografts in nude mice was tested using FLT3 inhibitor Compound B. The in vivo study was designed to extend the in vitro observations to evaluate the potential for a synergistic anti-tumor effect of FLT3 inhibitor Compound B administered orally together with Tipifarnib to nude mice bearing established MV-4-11 tumor xenografts.
In the case of `Cn1cncc1C(N)(c1ccc(Cl)cc1)c1ccc2c(c1)c(-c1cccc(Cl)c1)cc(=O)n2C` (single isomer, unassigned; (+)) [Tipifarnib, (+)-6-[amino(4-chlorophenyl)(1-methyl-1H-imidazol-5-yl)methyl]-4-(3-chlorophenyl)-1-methyl-2(1H)-quinolinone], the “effect on tumor volume compared to control” value is reported as “not significantly reduced”.

Same assay, conditions: 9-day treatment, either agent alone or in combination
In the case of `Cn1cncc1C(N)(c1ccc(Cl)cc1)c1ccc2c(c1)c(-c1cccc(Cl)c1)cc(=O)n2C` (single isomer, unassigned; (+)) [Tipifarnib, (+)-6-[amino(4-chlorophenyl)(1-methyl-1H-imidazol-5-yl)methyl]-4-(3-chlorophenyl)-1-methyl-2(1H)-quinolinone], the overt toxicity is reported as “No overt toxicity”.
